# Columns and labels:
# Format in all cases: in vivo
# [1] = test system: barnyardgrass (Echinochloa crus-galli); assay: Test A pre-/postemergence: barnyardgrass
# Procedure, shortened: (§1)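 Whole-plant greenhouse assay in loam/sand. Preemergence directed soil spray plus simultaneous postemergence spray (one- to two-leaf stage, 2–10 cm). Rated visually ~10 days later, 0 = no effect, 100 = complete control.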
# [2] = test system: crabgrass, large (large crabgrass, Digitaria sanguinalis); assay: Test A pre-/postemergence: crabgrass, large
# Procedure, shortened: as §1
# [3] = test system: foxtail, giant (giant foxtail, Setaria faberii); assay: Test A pre-/postemergence: foxtail, giant
# Procedure, shortened: as §1
# [4] = test system: morningglory (Ipomoea spp.); assay: Test A pre-/postemergence: morningglory
# Procedure, shortened: as §1
# [5] = test system: velvetleaf (Abutilon theophrasti); assay: Test A pre-/postemergence: velvetleaf
# Procedure, shortened: as §1
# [6] = test system: ryegrass, Italian (Italian ryegrass, Lolium multiflorum); assay: Test C pre-/postemergence: ryegrass, Italian
# Procedure, shortened: (§2)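 Preemergence on seeds in loam/sand, postemergence on 2–18 cm (1–4-leaf) plants in peat-based medium; compounds in non-phytotoxic solvent with surfactant. After 13–15 days in greenhouse, visual rating versus controls, 0 (no effect) to 100 (complete control).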
# wild oat (Avena fatua) = assay: Test C pre-/postemergence: wild oat; settings: Postemergence
# Procedure, shortened: as §2
# [7] = test system: galium (catchweed bedstraw, Galium aparine); assay: Test C pre-/postemergence: galium
# Procedure, shortened: as §2
# [8] = test system: large crabgrass (Digitaria sanguinalis); assay: Test C pre-/postemergence: large crabgrass
# Procedure, shortened: as §2
# [9] = test system: nutsedge, yellow (yellow nutsedge, Cyperus esculentus); assay: Test C pre-/postemergence: nutsedge, yellow
# Procedure, shortened: as §2
# [10] = test system: chickweed (common chickweed, Stellaria media); assay: Test C postemergence: chickweed
# Procedure, shortened: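 Greenhouse pot test; foliar postemergence treatment at 1- to 4-leaf stage. Rated visually at 13 to 15 days on a 0–100 control scale relative to untreated plants.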
# [11] = Postemergence, 125 g ai/ha, 0 to 100 scale, 0 is no effect, 100 is complete control
# [12] = Postemergence, 500 g ai/ha, 0 to 100 scale, 0 is no effect, 100 is complete control
# [13] = Preemergence, 125 g ai/ha, 0 to 100 scale where 0 is no effect and 100 is complete control
# [14] = Preemergence, 500 g ai/ha, 0 to 100 scale (0 no effect, 100 complete control)
# [15] = Postemergence, 31 g ai/ha, scale 0 to 100 (0 no effect, 100 complete control)
# [16] = Postemergence, 62 g ai/ha, scale 0 to 100 (0 no effect, 100 complete control)
# [17] = Postemergence, 125 g ai/ha, scale 0 to 100, 0 no effect, 100 complete control
# [18] = Postemergence, 250 g ai/ha, scale 0 to 100 (0 no effect, 100 complete control)
# [19] = Preemergence, 31 g ai/ha, scale 0 (no effect) to 100 (complete control)
# [20] = Preemergence, 62 g ai/ha, scale of 0 to 100, 0 is no effect, 100 is complete control
# [21] = Preemergence, 125 g ai/ha, scale 0 to 100, 0 no effect, 100 complete control
# [22] = Preemergence, 250 g ai/ha, scale 0 to 100, 0 no effect, 100 complete control
# [23] = 31 g ai/ha, scale 0 to 100 (0 no effect, 100 complete control)
# [24] = 62 g ai/ha, scale 0 to 100 (0 no effect, 100 complete control)
# [25] = 125 g ai/ha, scale 0 to 100, 0 no effect, 100 complete control
# [26] = 250 g ai/ha, scale 0 to 100 (0 no effect, 100 complete control)
# [27] = Postemergence, 250 g ai/ha, scale 0 to 100
structure (smiles),measurement,setting,value
CCc1nn(-c2ccc(C(F)(F)F)c(F)c2)nc1Oc1ccnc(C(F)(F)F)c1 [Compound 183],"Plant response rating, Barnyardgrass",[1]; [11],80
same,Barnyardgrass plant response rating,[1]; [12],90
same,"Plant response rating, Barnyardgrass",[1]; [13],90
same,"Plant response rating, Barnyardgrass",[1]; [14],100
same,"Plant response rating, Crabgrass, Large",[2]; [11],90
same,"Crabgrass, Large plant response rating",[2]; [12],90
same,"Plant response rating, Crabgrass, Large",[2]; [13],100
same,"Plant response rating, Crabgrass, Large",[2]; [14],100
same,"Plant response rating, Foxtail, Giant",[3]; [11],90
same,"Foxtail, Giant plant response rating",[3]; [12],90
same,"Plant response rating, Foxtail, Giant",[3]; [13],100
same,"Plant response rating, Foxtail, Giant",[3]; [14],100
same,"Plant response rating, Morningglory",[4]; [11],100
same,Morningglory plant response rating,[4]; [12],100
same,"Plant response rating, Morningglory",[4]; [13],70
same,"Plant response rating, Morningglory",[4]; [14],90
same,"Plant response rating, Velvetleaf",[5]; [11],100
same,Velvetleaf plant response rating,[5]; [12],100
same,"Plant response rating, Velvetleaf",[5]; [13],70
same,"Plant response rating, Velvetleaf",[5]; [14],80
same,"Plant response rating, Ryegrass, Italian",[6]; [15],10
same,"Plant response rating, Ryegrass, Italian",[6]; [16],15
same,"Plant response rating, Ryegrass, Italian",[6]; [17],20
same,"Plant response rating, Ryegrass, Italian",[6]; [18],40
same,"Plant response rating, Ryegrass, Italian",[6]; [19],65
same,"Plant response rating, Ryegrass, Italian",[6]; [20],80
same,"Plant response rating, Ryegrass, Italian",[6]; [21],90
same,"Plant response rating, Ryegrass, Italian",[6]; [22],95
same,"Plant response rating, Oat, Wild",wild oat (Avena fatua); [23],30
same,"Plant response rating, Oat, Wild",wild oat (Avena fatua); [24],40
same,"Plant response rating, Oat, Wild",wild oat (Avena fatua); [25],55
same,"Plant response rating, Oat, Wild",wild oat (Avena fatua); [26],85
same,"Plant response rating, Galium",[7]; [15],70
same,"Plant response rating, Galium",[7]; [16],70
same,"Plant response rating, Galium",[7]; [17],90
same,"Plant response rating, Galium",[7]; [18],90
same,"Plant response rating, Galium",[7]; [19],60
same,"Plant response rating, Galium",[7]; [20],100
same,"Plant response rating, Galium",[7]; [21],100
same,"Plant response rating, Galium",[7]; [22],100
same,"Plant response rating, Crabgrass, Large",[8]; [15],25
same,"Plant response rating, Crabgrass, Large",[8]; [16],35
same,"Plant response rating, Crabgrass, Large",[8]; [17],35
same,"Plant response rating, Crabgrass, Large",[8]; [27],85
same,"Plant response rating, Crabgrass, Large",[8]; [19],100
same,"Plant response rating, Crabgrass, Large",[8]; [20],100
same,"Plant response rating, Crabgrass, Large",[8]; [21],100
same,"Plant response rating, Crabgrass, Large",[8]; [22],100
same,"Plant response rating, Nutsedge, Yellow",[9]; [15],10
same,"Plant response rating, Nutsedge, Yellow",[9]; [16],10
same,"Plant response rating, Nutsedge, Yellow",[9]; [17],10
same,"Plant response rating, Nutsedge, Yellow",[9]; [18],10
same,"Plant response rating, Nutsedge, Yellow",[9]; [19],0
same,"Plant response rating, Nutsedge, Yellow",[9]; [20],0
same,"Plant response rating, Nutsedge, Yellow",[9]; [21],5
same,"Plant response rating, Nutsedge, Yellow",[9]; [22],5
same,"Plant response rating, Chickweed",[10]; [23],75
same,"Plant response rating, Chickweed",[10]; [24],75
same,"Plant response rating, Chickweed",[10]; [25],80
same,"Plant response rating, Chickweed","[10]; 250 g ai/ha, scale 0 to 100",98
CCOc1nn(-c2ccc(Cl)cc2)nc1Cc1ccnc(C(F)(F)F)c1 [Compound 188],"Plant response rating, Barnyardgrass",[1]; [11],90
same,Barnyardgrass plant response rating,[1]; [12],90
same,"Plant response rating, Barnyardgrass",[1]; [13],90
same,"Plant response rating, Barnyardgrass",[1]; [14],100
same,"Plant response rating, Crabgrass, Large",[2]; [11],90
same,"Crabgrass, Large plant response rating",[2]; [12],90
same,"Plant response rating, Crabgrass, Large",[2]; [13],100
same,"Plant response rating, Crabgrass, Large",[2]; [14],100
same,"Plant response rating, Foxtail, Giant",[3]; [11],90
same,"Foxtail, Giant plant response rating",[3]; [12],90
same,"Plant response rating, Foxtail, Giant",[3]; [13],100
same,"Plant response rating, Foxtail, Giant",[3]; [14],100
same,"Plant response rating, Morningglory",[4]; [11],90
same,Morningglory plant response rating,[4]; [12],100
same,"Plant response rating, Morningglory",[4]; [13],20
same,"Plant response rating, Morningglory",[4]; [14],90
same,"Plant response rating, Velvetleaf",[5]; [11],70
same,Velvetleaf plant response rating,[5]; [12],90
same,"Plant response rating, Velvetleaf",[5]; [13],40
same,"Plant response rating, Velvetleaf",[5]; [14],90
same,"Plant response rating, Ryegrass, Italian",[6]; [15],50
same,"Plant response rating, Ryegrass, Italian",[6]; [16],70
same,"Plant response rating, Ryegrass, Italian",[6]; [17],85
same,"Plant response rating, Ryegrass, Italian",[6]; [18],90
same,"Plant response rating, Ryegrass, Italian",[6]; [19],60
same,"Plant response rating, Ryegrass, Italian",[6]; [20],65
same,"Plant response rating, Ryegrass, Italian",[6]; [21],95
same,"Plant response rating, Ryegrass, Italian",[6]; [22],98
same,"Plant response rating, Oat, Wild",wild oat (Avena fatua); [23],45
same,"Plant response rating, Oat, Wild",wild oat (Avena fatua); [24],60
same,"Plant response rating, Oat, Wild",wild oat (Avena fatua); [25],60
same,"Plant response rating, Oat, Wild",wild oat (Avena fatua); [26],90
same,"Plant response rating, Galium",[7]; [15],60
same,"Plant response rating, Galium",[7]; [16],80
same,"Plant response rating, Galium",[7]; [17],85
same,"Plant response rating, Galium",[7]; [18],90
same,"Plant response rating, Galium",[7]; [19],90
same,"Plant response rating, Galium",[7]; [20],90
same,"Plant response rating, Galium",[7]; [21],95
same,"Plant response rating, Galium",[7]; [22],95
same,"Plant response rating, Crabgrass, Large",[8]; [15],50
same,"Plant response rating, Crabgrass, Large",[8]; [16],85
same,"Plant response rating, Crabgrass, Large",[8]; [17],95
same,"Plant response rating, Crabgrass, Large",[8]; [27],95
same,"Plant response rating, Crabgrass, Large",[8]; [19],98
same,"Plant response rating, Crabgrass, Large",[8]; [20],100
same,"Plant response rating, Crabgrass, Large",[8]; [21],100
same,"Plant response rating, Crabgrass, Large",[8]; [22],100
same,"Plant response rating, Nutsedge, Yellow",[9]; [15],10
same,"Plant response rating, Nutsedge, Yellow",[9]; [16],10
same,"Plant response rating, Nutsedge, Yellow",[9]; [17],10
same,"Plant response rating, Nutsedge, Yellow",[9]; [18],15
same,"Plant response rating, Nutsedge, Yellow",[9]; [19],5
same,"Plant response rating, Nutsedge, Yellow",[9]; [20],5
same,"Plant response rating, Nutsedge, Yellow",[9]; [21],5
same,"Plant response rating, Nutsedge, Yellow",[9]; [22],20
same,"Plant response rating, Chickweed",[10]; [23],80
same,"Plant response rating, Chickweed",[10]; [24],90
same,"Plant response rating, Chickweed",[10]; [25],90
same,"Plant response rating, Chickweed","[10]; 250 g ai/ha, scale 0 to 100",95

# From patent US9302999B2, “Substituted triazoles as herbicides” (E. I. DU PONT DE NEMOURS AND COMPANY, priority 2012, dated 2016)
